Results on 11 compounds are retold here after US4882331A, “1-[(1,1-diphenyl)-1-alkenyl]piperazine derivatives, method of preparation and pharmaceutical compositions in which they are present” (priority 1987, dated 1989).

One data set has as its system yohimbine toxicity. Put plainly: Yohimbine test (yohimbine toxicity). It counts as in vivo. The conditions noted are these: 24 h; mouse; IP; yohimbine 25 mg/kg IP. As for the experimental part: The test derivative is administered 30 min before the injection of yohimbine (25 mg/kg IP).
The number of deaths is counted 24 h after the injection of yohimbine.

For data set [1], the system named is pain syndrome caused by phenylbenzoquinone (PBQ). As to the kind of experiment: Peripheral analgesic activity (phenylbenzoquinone). Format: in vivo. To be noted: mouse; IP. As for the experimental part: 5. Peripheral analgesic activity
A peritoneal pain is caused in mice by the intraperitoneal injection of phenylbenzoquinone (PBQ).
The test assesses the decrease in the pain syndrome, characterized by an abdominal twisting movement, which is caused by injecting the test derivative 30 min before the administration of PBQ.
The 50% effective dose is calculated from the percentage decrease in the pain syndrome relative to the control animals.

The nature of another data set: in vivo. To be noted: mouse, in vivo, ip. As for the experimental part: (§1) The toxicity of the compounds of the invention was determined by the following test:
(§2) Determination of the 50% lethal dose (LD50) in mice
(§3) The test product was administered intraperitoneally to groups of 5 male mice and 5 female mice at a rate of 0.1 ml per 10 g of body weight.

In the next data set the test system is mice. Put plainly: Determination of the 50% lethal dose (LD50) in mice. The conditions noted are these: mice, IP. As for the experimental part:
as §1, §2, §3

In the next data set the test system is motor activity of mice. Put plainly: Study of the spontaneous motility (photoelectric actimeter). To be noted: mouse, IP; for Activity (spontaneous motility): doses in mg.kg^-1. It counts as in vivo. As for the experimental part: 1. Study of the spontaneous motility
The motor activity of mice was determined using a Boissier and Simon photoelectric actimeter.
The mice are placed in groups of five in a box closed with a lid, through which two perpendicular rays of light pass; the mice cut across these rays as they move.
These movements are counted by a meter, which is read 30 min and 1 h after the administration of the test derivative.

In data set [2] the test system is antiserotoninergic activity. As to the kind of experiment: Antiserotoninergic activity tests, overall result. It counts as in vivo, mice, rats. To be noted: overall statement on Table IV. The source says: The compound of Example 1 was furthermore tested for its antiserotoninergic activity according to the following tests: […]
Data set [3] deals with penile erections and yawning. Put plainly: Penile erections caused by apomorphine. It counts as in vivo. The conditions noted are these: Rattus norvegicus; rats; IP; apomorphine 0.20 mg/kg; read-out: Antagonism of the penile erections and yawning: antagonism as from dose. As for the experimental part: 3. Penile erections caused by apomorphine
The test product was administered parenterally or orally to rats, placed in a transparent cage, 30 minutes before the intraperitoneal injection of 0.20 mg/kg of apomorphine.
The number of penile erections was recorded over the 30 minutes following the injection of apomorphine.
A statistical study was carried out by comparison with the numbers of erections in the control rats.

In data set [4] the test system is hyperthermia and clinical signs after tranylcypromine and tryptophan. As to the kind of experiment: Grahame Smith's test. It counts as in vivo. The conditions noted are these: rats; PO. As for the experimental part: Animals: male rats of 200±10 g
At time T-30 minutes, the test product was administered intraperitoneally.
At time T=O, an MAOI was administered intraperitoneally (tranylcypromine, 20 mg/kg).
At time T+20 minutes, 250 mg/kg of tryptophan were administered (IP).
The temperature of the rats was recorded every 30 minutes for 200 minutes and the various clinical signs (motor agitation--hypersalivation--catatonia of the tail--hyperesthesia--thrashing of the tail, etc.) were noted on a scale of 0 to 1.
The mean temperatures and the average symptoms observed were calculated by comparison with the controls.

A further data set has as its system central nervous system. As to the kind of experiment: Pharmacological tests on the central nervous system, overall result. Format: in vivo, mouse, rat. To be noted: overall statement on Table III. As for the experimental part:
The pharmacological properties of the compounds of the invention were determined using the following tests: Experimental protocols The results obtained are collated in Table III below. […]

For data set [5], the system named is head twitches induced by 5-MeODMT. Put plainly: Head twitches caused by 5-methoxydimethyltryptamine (5-MeODMT). It counts as in vivo. To be noted: Mus musculus; male mice; IP; 5-MeODMT 4 mg/kg; read-out: Antagonism of the head twitches induced by 5-MeODMT: decrease as from dose. As for the experimental part: 2. Head twitches caused by 5-methoxydimethyltryptamine (5-MeODMT)
(§4) Animals: male mice of 25±1 g
At time T-3 hours, 100 mg/kg of pargyline were injected intraperitoneally.
(§5) At time T-30 minutes, the test product or distilled water (control) was injected intraperitoneally.
At time T=O, 5-MeODMT was injected intraperitoneally at a dose of 4 mg/kg.
The number of head twitches was observed.
(§6) The mean number of movements was calculated and compared with the control group.

Data set [6] relates to head twitches induced by 5-HTP. As to the kind of experiment: Head twitches caused by 5-hydroxytryptophane (5-HTP). The conditions noted are these: Mus musculus; male mice; IP; 5-HTP 4 mg/kg; read-out: Antagonism of the head twitches induced by 5-HTP: decrease as from dose. Format: in vivo. As for the experimental part: 1. Head twitches caused by 5-hydroxytryptophane (5-HTP)
as §4
At time T-3 h, 100 mg/kg of pargyline were injected intraperitoneally.
as §5
At time T=O, 5-HTP was injected intraperitoneally at a dose of 4 mg/kg.
All the jerky head movements made by the mice were observed over a 1-minute period every twelve minutes.
as §6

Data set [7] deals with mouse muscle-relaxing action. Put plainly: Muscle-relaxing action (traction test). Format: in vivo. To be noted: IP, doses in mg.kg^-1. The source says: 3. Muscle-relaxing action (traction test)
This test assesses the presence or absence of redressments in a mouse brought up to a horizontal wire with its front paws.
The number of mice which are unable to grip the wire with one of their back paws within 5 s is noted.
A 50% effective dose can be calculated from the results obtained.

Structures are written as SMILES.

`Fc1ccc(OCCN2CCN(CCC=C(c3ccccc3)c3ccc(F)cc3)CC2)cc1` [Compound 17]: the ED50 was greater than 25 mg/kg with yohimbine toxicity and 5.2 mg/kg in data set [1].

In data set [1], `Fc1ccc(OCCN2CCN(CCCC=C(c3ccccc3)c3ccccc3)CC2)cc1` [Compound 16] yielded an ED50 of 4.5 mg/kg.

In the data set on yohimbine toxicity, `Fc1ccc(OCCCN2CCN(CCC=C(c3ccccc3)c3ccccc3)CC2)cc1` [Compound 6] returned an ED50 of 25 mg/kg. For the same compound, the 50% lethal dose (LD50) in “in vivo” is 247 mg/kg. In addition, the “FIDUCIAL LIMITS of LD50, CALCULATION ACCORDING TO LITCHFIELD and WILCOXON” value in the data set with mice was 206 to 296 mg/kg.

`Cc1ccccc1OC(CCN1CCN(CCC=C(c2ccccc2)c2ccccc2)CC1)c1ccccc1` (stereo not drawn) [Compound 4]: in the data set on motor activity of mice, the “Activity (spontaneous motility)” value is recorded as “Increase”. This compound also registered an LD50 in “in vivo” of 386 mg/kg. Besides, the “FIDUCIAL LIMITS of LD50, CALCULATION ACCORDING TO LITCHFIELD and WILCOXON” value in the data set on mice was 279 to 453 mg/kg. Besides, the 50% effect level in data set [1] (ED50) was put at a dose of 1.5 mg/kg.

With `Cc1ccc(OCCCCN2CCN(CCC=C(c3ccccc3)c3ccccc3)CC2)cc1` [Compound 14], the “Activity (spontaneous motility)” value in the data set with motor activity of mice was “Decrease”. Also, the ED50 in the data set on yohimbine toxicity is greater than 25 mg/kg; in data set [1] it was 2.5 mg/kg.

Consider `Fc1ccc(OCCN2CCN(CCC=C(c3ccccc3)c3ccccc3)CC2)cc1` [Compound 1, 1-[(1,1-diphenyl)-1-buten-4-yl]-4-[1-(2-(4-fluorophenoxy)ethyl]piperazine dimethanesulfonate], for which the antiserotoninergic activity entry in [2] is listed as “possesses an antiserotoninergic activity”. Further, the results for the minimal effective dose in data set [3], in data set [5] and in data set [6] were no less than 6.25 mg/kg, no less than 6.25 mg/kg and no less than 18.8 mg/kg, respectively. Also, the ED50 amounted to 31 mg/kg in the data set on yohimbine toxicity and 1.5 mg/kg in data set [1]. Further, the “Grahame Smith's test: decrease at dose” value in data set [4] turned out to be 37.5 mg/kg. Also, the “antidepressant / central nervous system activity” value in the data set on central nervous system is given as “antidepressants with a greater activity than the known antidepressants”. Further, in “in vivo”, the median lethal dose (LD50) worked out at 231 mg/kg. The “FIDUCIAL LIMITS of LD50, CALCULATION ACCORDING TO LITCHFIELD and WILCOXON” value in the data set on mice was 195 to 274 mg/kg.

As for `O=C(CCCN1CCN(CCC=C(c2ccccc2)c2ccccc2)CC1)c1ccc(F)cc1` [Compound 7], the 50% effective dose (ED50) in the data set with motor activity of mice was 7.5 mg/kg; in the data set on yohimbine toxicity, greater than 25 mg/kg.

`Fc1ccc(OC(CCN2CCN(CCC=C(c3ccccc3)c3ccccc3)CC2)c2ccccc2)cc1` (stereo not drawn) [Compound 5] displayed an LD50 in “in vivo” of 314 mg/kg. The “FIDUCIAL LIMITS of LD50, CALCULATION ACCORDING TO LITCHFIELD and WILCOXON” value with mice was 234 to 421 mg/kg.

As for `CN(C)CCCN1c2ccccc2CCc2ccccc21` [IMIPRAMINE], in data set [7], the “Muscle-relaxing action, traction test” value is on record as “No action”.

`Fc1ccc(OCCCCN2CCN(CCC=C(c3ccccc3)c3ccccc3)CC2)cc1` [Compound 8]: the ED50 was greater than 25 mg/kg in the data set on yohimbine toxicity and 6.25 mg/kg in data set [1]. Further, in the data set “in vivo”, the median lethal dose (LD50) was 199 mg/kg. In the data set on mice, the “FIDUCIAL LIMITS of LD50, CALCULATION ACCORDING TO LITCHFIELD and WILCOXON” value is 172 to 229 mg/kg.

As for `O=C(O)CCCCCCNC1c2ccccc2CCc2ccccc21` [AMINEPTINE], in data set [7], the “Muscle-relaxing action, traction test” value is “No action”.
